US10144715B2, “Piperazine derivatives as liver X receptor modulators” (priority 2014, dated 2018)
Like-named read-outs stand apart in the source and are kept apart here.

What was measured:
[1] = target: LXR α LBD protein (Homo sapiens (Human), UniProt Q13133); test: LXR α radioligand binding assay (SPA, competition with [3H]TO901317); settings: read-out: LXRα Binding Ki
[2] = target: LXR β LBD protein (Homo sapiens (Human), UniProt P55055); test: biochemical; assay type: binding
[3] = target: Gal4 DNA binding domain fused to the LBD of LXRα in HEK293 cells (Homo sapiens (Human), UniProt Q13133); test: LXR luciferase transcriptional reporter gene assay, agonist mode, LXRα; assay type: cell-based; settings: for EC50: read-out: Cell LXRα EC50
Gal4 DNA binding domain fused to the LBD of LXRα in HEK293 cells, sequence (Q13133 209-447): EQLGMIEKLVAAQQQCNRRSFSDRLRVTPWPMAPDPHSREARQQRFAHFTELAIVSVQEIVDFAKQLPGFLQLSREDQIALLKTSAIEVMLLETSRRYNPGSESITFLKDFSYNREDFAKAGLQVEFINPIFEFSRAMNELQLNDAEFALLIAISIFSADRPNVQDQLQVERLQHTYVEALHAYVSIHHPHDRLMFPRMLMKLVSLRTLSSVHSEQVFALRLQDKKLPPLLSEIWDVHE

[4] = target: Gal4 DNA binding domain fused to the LBD of LXRβ in HEK293 cells (Homo sapiens (Human), UniProt P55055); test: cell-based
Gal4 DNA binding domain fused to the LBD of LXRβ in HEK293 cells, sequence (P55055 222-460 limits assumed): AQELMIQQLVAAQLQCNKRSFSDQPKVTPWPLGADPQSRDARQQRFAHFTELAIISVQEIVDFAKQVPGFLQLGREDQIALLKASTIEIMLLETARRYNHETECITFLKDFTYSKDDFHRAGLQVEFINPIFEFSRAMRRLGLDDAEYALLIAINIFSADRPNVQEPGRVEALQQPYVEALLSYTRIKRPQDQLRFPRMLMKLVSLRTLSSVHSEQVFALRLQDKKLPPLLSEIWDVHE

[5] = Biological Test Example 1, read-out: LXRβ Binding Ki
[6] = Biological Test Example 2, agonist mode

LXR β LBD protein, sequence (P55055 222-460 limits assumed): as above
LXR α LBD protein, sequence (Q13133 209-447): as the sequence (Q13133 209-447) above

| SMILES | Ki [1] [nM] | Ki ([2]; read-out: LXRβ Binding Ki) [nM] | Cell LXRα efficacy [3] | EC50 [3] [nM] | Cell LXRβ efficacy ([4]; agonist mode) | EC50 ([4]; agonist mode, read-out: Cell LXRβ EC50) [nM] | Ki [2] [nM] | EC50 [4] [nM] | Ki [2, 5] [nM] | Cell LXRβ efficacy [4, 6] | EC50 ([4]; Biological Test Example 2, agonist mode, read-out: Cell LXRβ EC50) [nM] | EC50 [3, 6] [nM] | EC50 ([3]; agonist mode) [nM] | Cell LXRβ efficacy [4] |
| --- | --- | --- | --- | --- | --- | --- | --- | --- | --- | --- | --- | --- | --- | --- |
| CC(C)[C@@H]1CN(c2ccc(F)c(S(C)(=O)=O)c2)CCN1C[C@H]1CC[C@@H](C(F)(F)F)CC1 [48-24, (R)-4-(4-fluoro-3-(methylsulfonyl)phenyl)-2-isopropyl-1-(((1s,4S)-4-(trifluoromethyl)cyclohexyl)methyl)piperazine] | 765 | 55 | 1347 (88) % | 1350 | 63% | 563 | – | – | – | – | – | – | – | – |
| CC(C)(O)[C@H]1CCC[C@@H](CN2CCN(c3cccc(S(C)(=O)=O)c3)CC2c2ccccc2)C1 (stereo partly drawn) [48-25, 2-((1S,3R)-3-((4-(3-(methylsulfonyl)phenyl)-2-phenylpiperazin-1-yl)methyl)cyclohexyl)propan-2-ol] | 1240 | – | – | > 20000 | – | – | 178 | > 20000 | – | – | – | – | – | – |
| COCc1ccc(N2CCN(C[C@H]3CC[C@H](C(F)(F)F)CC3)[C@@H](c3ccccc3)C2)cc1S(C)(=O)=O [48-49, (S)-4-(4-(methoxymethyl)-3-(methylsulfonyl)phenyl)-2-phenyl-1-(((1r,4S)-4-(trifluoromethyl)cyclohexyl)methyl)piperazine] | 13800 | – | 9842 (9) % | 9840 | – | – | – | – | 1490 | 12% | 1350 | – | – | – |
| CC(C)[C@H]1CN(c2cccc(S(C)(=O)=O)c2)CCN1CC1CCOCC1 [51-2, (S)-2-isopropyl-4-(3-(methylsulfonyl)phenyl)-1-((tetrahydro-2H-pyran-4-yl)methyl)piperazine] | > 3330 | – | – | – | – | – | – | 1360 | > 2500 | 1362 (7) % | – | > 20000 | – | – |
| CC(C)[C@H]1CN(c2cccc(S(C)(=O)=O)c2)CCN1CC1CCC(C)(C)OC1 (stereo partly drawn) [51-3, (2S)-1-((6,6-dimethyltetrahydro-2H-pyran-3-yl)methyl)-2-isopropyl-4-(3-(methylsulfonyl)phenyl)piperazine] | 3170 | – | 3460 (51) % | – | – | – | – | 590 | 482 | 590 (50) % | – | 3460 | – | – |
| CC(=O)NCc1cnc(N2CCN(c3ccc(F)c(S(C)(=O)=O)c3)C[C@H]2C(C)C)nc1C(F)(F)F [54-2, (R)-N-((2-(4-(4-fluoro-3-(methylsulfonyl)phenyl)-2-isopropylpiperazin-1-yl)-4-(trifluoromethyl)pyrimidin-5-yl)methyl)acetamide] | 863 | – | 3064 (29) % | 3060 | – | – | – | 812 | 81 | 812 (27) % | – | – | – | – |
| CC(C)[C@@H]1CN(c2ccc(F)c(S(C)(=O)=O)c2)CCN1c1cnc(C(F)(F)F)cn1 [Cpd No 7-44, (R)-2-(4-(4-fluoro-3-(methylsulfonyl)phenyl)-2-isopropylpiperazin-1-yl)-5-(trifluoromethyl)pyrazine] | 43 | 4 | 120 (97) % | – | – | – | – | 19 | – | – | – | – | 120 | 19 (118) % |
| CC(C)[C@@H]1CN(c2ccc(-c3nc(C#N)cs3)c(S(C)(=O)=O)c2)CCN1c1ncc(CO)c(C(F)(F)F)n1 [Cpd No 11-12, (R)-2-(4-(4-(5-(hydroxymethyl)-4-(trifluoromethyl)pyrimidin-2-yl)-3-isopropylpiperazin-1-yl)-2-(methylsulfonyl)phenyl)thiazole-4-carbonitrile] | 194 | 8 | 488 (67) % | – | 41 (73) % | – | – | 41 | – | – | – | – | 488 | – |
| CC(C)[C@@H]1CN(c2ccc(F)c(S(C)(=O)=O)c2)CCN1c1ncc([C@H](C)O)c(C(F)(F)F)n1 [Cpd No 12-2, (S)-1-(2-((R)-4-(4-fluoro-3-(methylsulfonyl)phenyl)-2-isopropylpiperazin-1-yl)-4-(trifluoromethyl)pyrimidin-5-yl)ethan-1-ol] | 233 | – | 746 (41) % | 746 | 117 (36) % | – | 11 | 117 | – | – | – | – | – | – |
| CC(C)[C@@H]1CN(c2ccc(F)c(S(C)(=O)=O)c2)CCN1c1ncc([C@@H](C)O)c(C(F)(F)F)n1 [Cpd No 12-3, (R)-1-(2-((R)-4-(4-fluoro-3-(methylsulfonyl)phenyl)-2-isopropylpiperazin-1-yl)-4-(trifluoromethyl)pyrimidin-5-yl)ethan-1-ol] | 168 | – | 769 (43) % | 769 | 84 (29) % | – | 6 | 84 | – | – | – | – | – | – |
| CC(=O)c1cnc(N2CCN(c3ccc(F)c(S(C)(=O)=O)c3)C[C@H]2C(C)C)nc1C(F)(F)F [Cpd No 13-1, (R)-1-(2-(4-(4-fluoro-3-(methylsulfonyl)phenyl)-2-isopropylpiperazin-1-yl)-4-(trifluoromethyl)pyrimidin-5-yl)ethan-1-one] | 62 | – | 253 (63) % | 253 | 49 (51) % | – | 3 | 49 | – | – | – | – | – | – |
| CC(C)[C@@H]1CN(c2ccc(F)c(S(C)(=O)=O)c2)CCN1c1cncc(C(F)(F)F)c1 [Cpd No 20-1, (R)-4-(4-fluoro-3-(methylsulfonyl)phenyl)-2-isopropyl-1-(5-(trifluoromethyl)pyridin-3-yl)piperazine] | 166 | 24 | 678 (90) % | 678 | 141 (75) % | – | – | 141 | – | – | – | – | – | – |
| CC(C)Oc1cc(C(F)(F)F)nc(N2CCN(c3ccc(F)c(S(C)(=O)=O)c3)C[C@H]2C(C)C)n1 [Cpd No 23-1, (R)-2-(4-(4-fluoro-3-(methylsulfonyl)phenyl)-2-isopropylpiperazin-1-yl)-4-isopropoxy-6-(trifluoromethyl)pyrimidine] | 1180 | – | – | – | – | – | 212 | > 20000 | – | – | – | – | > 20000 | – |
| CC(C)[C@@H]1CN(c2ccc(F)c(S(C)(=O)=O)c2)CCN1c1nc(C(F)(F)F)c(C(C)(C)O)s1 [Cpd No 26-1, (R)-2-(2-(4-(4-fluoro-3-(methylsulfonyl)phenyl)-2-isopropylpiperazin-1-yl)-4-(trifluoromethyl)thiazol-5-yl)propan-2-ol] | 111 | 5 | 584 (102) % | – | 185 (98) % | – | – | 185 | – | – | – | – | 584 | – |
| Cc1csc(-c2ccc(N3CCN(c4ncc(CO)c(C(F)(F)F)n4)[C@H](C(C)C)C3)cc2S(C)(=O)=O)n1 [Cpd No 28-1, (R)-(2-(2-isopropyl-4-(3-(methylsulfonyl)-4-(4-methylthiazol-2-yl)phenyl)piperazin-1-yl)-4-(trifluoromethyl)pyrimidin-5-yl)methanol] | 29 | 3 | 66 (80) % | – | 11 (79) % | – | – | 11 | – | – | – | – | 66 | – |
| CC(C)[C@@H]1CN(c2ccc(F)c(S(C)(=O)=O)c2)CCN1c1ncc(O)c(C(F)(F)F)n1 [Cpd No 30-1, (R)-2-(4-(4-fluoro-3-(methylsulfonyl)phenyl)-2-isopropylpiperazin-1-yl)-4-(trifluoromethyl)pyrimidin-5-ol] | 169 | 24 | 3121 (100) % | 3120 | – | – | – | 729 | – | – | – | – | – | 729 (98) % |
| CC(C)[C@@H]1CN(c2ccc(F)c(S(C)(=O)=O)c2)CCN1c1ncc(C(F)(F)F)c(C(C)(C)O)n1 [Cpd No 39-1, (R)-2-(2-(4-(4-fluoro-3-(methylsulfonyl)phenyl)-2-isopropylpiperazin-1-yl)-5-(trifluoromethyl)pyrimidin-4-yl)propan-2-ol] | 53 | 2 | 327 (96) % | 327 | 86 (62) % | – | – | 86 | – | – | – | – | – | – |
| CC(C)[C@@H]1CN(c2ccc(F)c(S(C)(=O)=O)c2)CCN1c1ncc(C(O)C(F)(F)F)cn1 (stereo partly drawn) [Cpd No 41-1, 2,2,2-trifluoro-1-(2-((R)-4-(4-fluoro-3-(methylsulfonyl)phenyl)-2-isopropylpiperazin-1-yl)pyrimidin-5-yl)ethan-1-ol] | 1120 | 92 | 3334 (36) % | 3330 | – | – | – | 305 | – | – | – | – | – | 305 (19) % |
| COC(c1cnc(N2CCN(c3ccc(F)c(S(C)(=O)=O)c3)C[C@H]2C(C)C)nc1)C(F)(F)F (stereo partly drawn) [Cpd No 42-1, 2-((R)-4-(4-fluoro-3-(methylsulfonyl)phenyl)-2-isopropylpiperazin-1-yl)-5-(2,2,2-trifluoro-1-methoxyethyl)pyrimidine] | 366 | 33 | 763 (48) % | 763 | – | – | – | 124 | – | – | – | – | – | 124 (20) % |
| CC(C)[C@@H]1CN(c2ccc(F)c(S(C)(=O)=O)c2)CCN1c1ccnc(OC(F)F)c1 [Cpd No 44-1, (R)-1-(2-(difluoromethoxy)pyridin-4-yl)-4-(4-fluoro-3-(methylsulfonyl)phenyl)-2-isopropylpiperazine] | 45 | 7 | 258 (99) % | 258 | – | – | – | 70 | – | – | – | – | – | 70 (83) % |
| CC(C)[C@H]1CN(c2ccc(CO)c(S(C)(=O)=O)c2)CCN1CC1CCC(O)(C(F)(F)F)CC1 (stereo partly drawn) [Cpd No 48-38, (S)-4-((4-(4-(hydroxymethyl)-3-(methylsulfonyl)phenyl)-2-isopropylpiperazin-1-yl)methyl)-1-(trifluoromethyl)cyclohexan-1-ol] | 244 | 27 | 106 (86) % | 106 | 30 (81) % | – | – | 30 | – | – | – | – | – | – |
